Key:
Assay in all cases: relative viability (nuclei count vs DMSO), 5 days (fraction); higher = more cells survive
Quizartinib + Foretinib = compound: CC(C)(C)c1cc(NC(=O)Nc2ccc(-c3cn4c(n3)sc3cc(OCCN5CCOCC5)ccc34)cc2)no1 [Quizartinib] + COc1cc2c(Oc3ccc(NC(=O)C4(C(=O)Nc5ccc(F)cc5)CC4)cc3F)ccnc2cc1OCCCN1CCOCC1 [Foretinib] (partner 0.25 µM)
How it was run: (§1)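 Values are medians from duplicate plates. Each reflects relative viability, defined as the nuclei count of treated wells over that of vehicle wells. Lung cancer cell lines in 1536-well plates were pin-tool dosed one day after seeding with one drug alone or with a fixed anchor-drug dose plus five library-drug doses (not always all listed) in √10 steps, then fixed, stained and imaged at 4× after 5 days.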

Quizartinib + Vorinostat = compound: CC(C)(C)c1cc(NC(=O)Nc2ccc(-c3cn4c(n3)sc3cc(OCCN5CCOCC5)ccc34)cc2)no1 [Quizartinib] + O=C(CCCCCCC(=O)Nc1ccccc1)NO [Vorinostat] (partner 1 µM)
How it was run: as §1

YM155 + Trametinib = compound: COCC[n+]1c2c(n(Cc3cnccn3)c1C)C(=O)c1ccccc1C2=O [YM155] + CC(=O)Nc1cccc(-n2c(=O)n(C3CC3)c(=O)c3c(Nc4ccc(I)cc4F)n(C)c(=O)c(C)c32)c1 [Trametinib] (partner 0.02 µM)
How it was run: as §1

YM155 + Navitoclax = compound: COCC[n+]1c2c(n(Cc3cnccn3)c1C)C(=O)c1ccccc1C2=O [YM155] + CC1(C)CCC(c2ccc(Cl)cc2)=C(CN2CCN(c3ccc(C(=O)NS(=O)(=O)c4ccc(N[C@H](CCN5CCOCC5)CSc5ccccc5)c(S(=O)(=O)C(F)(F)F)c4)cc3)CC2)C1 [Navitoclax] (partner 0.5 µM)
How it was run: as §1

| Cell Line | relative viability (Quizartinib + Foretinib; first compound 0.001 µM) | relative viability (Quizartinib + Foretinib; first compound 0.003162 µM) | relative viability (Quizartinib + Foretinib; first compound 0.01 µM) | relative viability (Quizartinib + Foretinib; first compound 0.03162 µM) | relative viability (Quizartinib + Foretinib; first compound 0.1 µM) | relative viability (Quizartinib + Vorinostat; first compound 0.001 µM) | relative viability (Quizartinib + Vorinostat; first compound 0.003162 µM) | relative viability (Quizartinib + Vorinostat; first compound 0.01 µM) | relative viability (Quizartinib + Vorinostat; first compound 0.03162 µM) | relative viability (Quizartinib + Vorinostat; first compound 0.1 µM) | relative viability (YM155 + Trametinib; first compound 0.002 µM) | relative viability (YM155 + Trametinib; first compound 0.006325 µM) | relative viability (YM155 + Trametinib; first compound 0.02 µM) | relative viability (YM155 + Trametinib; first compound 0.06325 µM) | relative viability (YM155 + Navitoclax; first compound 0.002 µM) | relative viability (YM155 + Navitoclax; first compound 0.006325 µM) | relative viability (YM155 + Navitoclax; first compound 0.02 µM) | relative viability (YM155 + Navitoclax; first compound 0.06325 µM) |
| --- | --- | --- | --- | --- | --- | --- | --- | --- | --- | --- | --- | --- | --- | --- | --- | --- | --- | --- |
| SK-LU-1 | 0.779 | 0.76 | 0.943 | 0.83 | 0.985 | 0.766 | 0.716 | 0.896 | 0.835 | 0.892 | 0.455 | 0.456 | 0.564 | 0.438 | 1.05 | 0.559 | 1.27 | 0.418 |
| LK-2 | 1.29 | – | 1.03 | 1.33 | 1.43 | 0.179 | 0.185 | 0.306 | 0.315 | 0.294 | 0.631 | 0.717 | 0.827 | 0.851 | 0.776 | 0.855 | 0.85 | 1.09 |
| NCI-H596 | 0.925 | 0.816 | 0.949 | 0.903 | 0.754 | 0.565 | 0.775 | 0.61 | 0.686 | 0.6 | 0.783 | 0.784 | 0.744 | 0.859 | – | 0.972 | 1.09 | 1.03 |
| UMC-11 | – | 0.972 | 1.17 | 0.957 | 1.1 | 0.376 | 0.333 | 0.336 | 0.338 | 0.358 | 0.56 | 0.745 | 0.771 | 0.739 | 0.293 | 0.332 | 0.29 | 0.375 |
| NCI-H1355 | 0.917 | 0.957 | 0.936 | 0.814 | 1.06 | 0.631 | 0.607 | 0.627 | 0.647 | 0.647 | 0.509 | 0.454 | 0.473 | 0.406 | 0.947 | 1.08 | 1.08 | 1.04 |
| NCI-H2228 | 0.927 | 0.954 | 1.01 | 0.715 | 1.02 | 0.51 | 0.565 | 0.844 | 0.535 | 0.629 | 0.485 | 0.444 | 0.565 | 0.589 | 1.03 | 0.487 | 0.956 | 0.857 |
| NCI-H2170 | 0.932 | 0.956 | 1.08 | 0.981 | 1.12 | 0.745 | 0.803 | 0.808 | 0.89 | 0.867 | 0.878 | 0.936 | 0.903 | 0.966 | 0.545 | 0.572 | 0.524 | 0.692 |
| NCI-H727 | 0.71 | 0.877 | 0.838 | 0.801 | 0.871 | 1.16 | 1.13 | 1.18 | 1.27 | 1.42 | 0.412 | 0.396 | 0.391 | 0.411 | 0.479 | 0.382 | 0.39 | 0.48 |
| NCI-H460 | 0.916 | 0.961 | 1.03 | 0.652 | 0.976 | – | 0.734 | 0.687 | – | 0.566 | 0.081 | 0.147 | 0.174 | 0.14 | 1.17 | 1.23 | 1.27 | 0.903 |
